From US7081464B2, “Topical compositions of cyclic amides as immunotherapeutic agents” (Celgene Corporation, priority 1995, dated 2006) come the findings set out here.

With `COc1ccc(C(CC(=O)O)N2C(=O)c3ccccc3C2=O)cc1OC1CCCC1` (centres unmarked) [Example 2, 3-Phthalimido-3-(3-cyclopentyloxy-4-methoxyphenyl)propionic Acid], the melting point (as a rule, the temperature, or range, at which the solid turns liquid) was in the range of 159 to 162 °C.

Turning to `COC(=O)CC(c1ccc(OC)c(OC2CCCC2)c1)N1C(=O)c2ccccc2C1=O` (centres unmarked) [Example 5, Methyl 3-phthalimido-3-(3-cyclopentyloxy-4-methoxyphenyl)propionate], the melting point fell in the range of 76 to 78 °C.
